# Results reported in patent US10358469B2, “Methods and pharmaceutical compositions for the treatment of cancer” (INSERM (INSTITUT NATIONAL DE LA SANTÉ ET DE LA RECHERCHE …, priority 2014, dated 2019).
# “Also recorded” adds a separate entry of the source. Non-standard residues stand in square brackets, D forms with d.
# Legend:
# [1] = system: leukemic cells isolated from hMRP8-PML/RARα transgenic mice; assay: Acute promyelocytic leukemia (APL) mouse model, survival; format: in vivo
# Protocol: FIG. 9: Antp-AAC-11-LZ (363-399) peptide treatment of leukemic mice protects against disease progression. Mice were challenged with 10^4 leukemic cells isolated from hMRP8-PML/RARα transgenic mice, allowed to engraft for 10 d, and were then injected intraperitonaly each day for 7 consecutive days with Antp-AAC-11-LZ (363-399) peptide (1.8 mg/kg) or vehicle (normal saline solution), or subcutaneously implanted with a 21-d release pellet containing 5 mg ATRA (n=6 for each treatment). Mice were monitored for survival.
# We use an established in vivo APL model based on syngenic grafts of leukemic blasts from hMRP8-PML/RARα transgenic mice, as described by Brown et al. (Brown et al., 1997). This model mimics human APL, both in its biological characteristics and its response to conventional therapeutic drugs such as all-trans retinoic acid (ATRA) and 100% of the mice die of the disease (Brown et al., 1997; Kogan et al., 2000; Lallemand-Breitenbach et al., 1999). […] leukemic cells isolated from bone marrow, spleen, or lymph nodes of leukemic hMRP8-PML/RARα transgenic mice (Brown et al., 1997) were injected into the tail vein of 6-7 week old syngeneic FVB/N mice. Establishment of leukemia was assessed by the appearance of high leukocyte and low platelet counts at around day 8 (Brown et al., 1997). Ten days after transplantation, mice implanted with leukemic cells were randomly assigned to either type of treatment (n=6). Antp-AAC-11-LZ (363-399) peptide (1.8 mg/kg) or vehicle (normal saline solution) was injected intraperitonaly each day for 7 consecutive days. Retinoic acid was administrated by subcutaneous implantation of a 21-d release pellet containing 5 mg ATRA (Innovative Research of America). Mice were then monitored for survival.
# A549 cells = assay: Cell viability (MTT) of A549 cells under low serum / serum deprivation; format: cell-based; conditions: for cellular viability: 2 µM; for cytotoxicity (decrease of A549 viability) relative to comparison peptide, dose-response: various concentrations, low-serum conditions, FIG. 2A / 5A
# Protocol: (A) Karpas 1106, SU-DHL-5, SeAx and HUT-78 cells were plated at a densities of 6×10^3 in 96 well plates (100 μL total volume per well) and treated for 24 hours in a 37° C. incubator (5% CO2) with increasing concentrations of the Antp-AAC-11-LZ (363-399). 20 μL MTS reagent was then added to each well and plates were incubated for an additional 4 hours. Absorbance was measured at 490 nm using a 96-well plate reader. The extent to which the Antp-AAC-11-LZ (363-399) peptide inhibited cell proliferation was calculated as a percentage of the absorbance in each well containing the Antp-AAC-11-LZ (363-399) peptide relative to wells containing no peptide (negative control). Each bar represents the mean±s.d. from at least three independent experiments. (B) Indicated cells were plated at a densities of 4.5×10^3 in 96 well plates (100 μL total volume per well) and allowed to attach overnight in a 37° C. incubator (5% CO2). Media was removed from cells and replaced with media containing Antp-AAC-11-LZ (363-399) peptide at various concentrations (100 μL total volume per well) peptide and the plates were incubated for 24 hours. The MTT assay was then completed and data analysis was performed as described herein. […] A549 cells were plated at a densities of 4.5×10^3 in 96 well plates (100 μL total volume per well) and allowed to attach overnight in a 37° C. incubator (5% CO2). Media was removed from cells and replaced with media containing the indicated peptides at 10 μM (100 μL total volume per well) and the plates were incubated for 24 hours. The MTT assay was then completed and data analysis was performed as described herein.
# (A) A549 cells were plated at a densities of 4.5×10^3 in 96 well plates (100 μL total volume per well) and allowed to attach overnight in a 37° C. incubator (5% CO2). Media was removed from cells and replaced with media containing the indicated peptides at various concentrations (100 μL total volume per well) peptide in the absence of serum and the plates were incubated for 24 hours. The MTT assay was then completed and data analysis was performed as described herein. (B) A549 or HaCat cells were plated at a densities of 4.5×10^3 in 96 well plates (100 μL total volume per well) and allowed to attach overnight in a 37° C. incubator (5% CO2). Media was removed from cells and replaced with media containing the indicated peptides at 10 μM (100 μL total volume per well) peptide in the absence of serum and the plates were incubated for 24 hours. The MTT assay was then completed and data analysis was performed as described herein.
# A549 cells were plated at a densities of 4.5×10^3 in 96 well plates (100 μL total volume per well) and allowed to attach overnight in a 37° C. incubator (5% CO2). Cells were left untreated or pre-treated with 100 μM Z-VAD-FMK for 2 h. […] The MTT assay was then completed and data analysis was performed as described herein.
# (A) A549 cells were plated at a densities of 4.5×10^3 in 96 well plates (100 μL total volume per well) and allowed to attach overnight in a 37° C. incubator (5% CO2). Media was removed from cells and replaced with media containing the indicated Antp-AAC-11-LZ peptides at various concentrations (100 μL total volume per well) peptide and the plates were incubated for 24 hours. The MTT assay was then completed and data analysis was performed as described herein. (B) A549 or HaCat cells were plated at a densities of 4.5×10^3 in 96 well plates (100 μL total volume per well) and allowed to attach overnight in a 37° C. incubator (5% CO2). Media was removed from cells and replaced with media containing the indicated peptides at 10 μM (100 μL total volume per well) peptide in the absence of serum and the plates were incubated for 24 hours. The MTT assay was then completed and data analysis was performed as described herein.
# HaCat cells = assay: Cell viability (MTT) of nonmalignant HaCat cells in the absence of serum; format: cell-based; conditions: 10 μM, 24 hours, FIG. 2B / 5B
# Protocol: FIG. 2: TAT-AAC-11-LZ (363-399), RI-TAT-AAC-11-LZ (363-399) and Cter-Antp-AAC-11-LZ (363-399) peptides preferentially kill tumor cells. (A) A549 cells were plated at a densities of 4.5×10^3 in 96 well plates (100 μL total volume per well) and allowed to attach overnight in a 37° C. incubator (5% CO2). Media was removed from cells and replaced with media containing the indicated peptides at various concentrations (100 μL total volume per well) peptide in the absence of serum and the plates were incubated for 24 hours. The MTT assay was then completed and data analysis was performed as described herein. (B) A549 or HaCat cells were plated at a densities of 4.5×10^3 in 96 well plates (100 μL total volume per well) and allowed to attach overnight in a 37° C. incubator (5% CO2). Media was removed from cells and replaced with media containing the indicated peptides at 10 μM (100 μL total volume per well) peptide in the absence of serum and the plates were incubated for 24 hours. […]
# Viability of cells cultured in the 96-well culture plates was assessed by measuring mitochondrial dehydrogenase activity, using the colorimetric CellTiter 96® AQueous One Solution Cell Proliferation Assay (Promega), according to the manufacturer′ instructions. […] The color can then be quantified using a simple colorimetric assay. The results are read on a multiwall scanning spectrophotometer (ELISA reader).
# D3H2LN cells = assay: Proliferation of D3H2LN cells (not showed); format: cell-based
molecule,measurement,setting,value
"CC1=C(/C=C/C(C)=C/C=C/C(C)=C/C(=O)O)C(C)(C)CCC1 [ATRA, all-trans retinoic acid, reference compound]",mice surviving up to 67 d,[1]; n=6 per treatment,one mouse
same,mean survival time,"[1]; peptide 1.8 mg/kg i.p. daily for 7 days, ATRA 5 mg 21-d release pellet s.c., from day 10 after graft, n=6",56 days
Ac-RQIKIWFKKQNRRMKWKKKDFKIRLQYFARGLQVYIRQLRLALQGKT-NH2 [Antp-AAC-11-LZ (371-399)],cellular viability,A549 cells,33.2 % of control
same,"cytotoxicity (decrease of A549 viability) relative to comparison peptide, dose-response",A549 cells; 24 hours,markedly increased cytotoxicity potency compared to the parent peptide
Ac-[dR][dR][dR][dQ][dR][dR][dK][dK][dR]G[dY]G[dT][dK]G[dQ][dL][dA][dL][dR][dL][dQ][dR][dI][dY][dV][dQ][dL]G[dR][dA][dF][dY][dQ][dL][dR][dI][dK][dF][dD][dK][dL][dK][dE][dA][dN][dL][dK][dA]-NH2 [RI-TAT-AAC-11-LZ (363-399)],"cytotoxicity (decrease of A549 viability) relative to comparison peptide, dose-response",A549 cells; 24 hours,more effective than the TAT-AAC-11-LZ (363-399) peptide
same,cytotoxicity in nonmalignant cells,HaCat cells,very little cytotoxicity
Ac-RQIKIWFKKQNRRMKWKKKDFKIRLQYFARGLQVYIRQLRLALQG-NH2 [Antp-AAC-11-LZ (371-397)],"cytotoxicity (decrease of A549 viability) relative to comparison peptide, dose-response",A549 cells; 24 hours,reduced cytotoxicity compared with the Antp-AAC-11-LZ (371-399) peptide; also recorded: significantly higher cell death compared with the Antp-AAC-11-LZ (363-399) parent peptide
Ac-YGRKKRRQRRRGGGAKLNAEKLKDFKIRLQYFARGLQVYIRQLRLALQGKT-NH2 [TAT-AAC-11-LZ (363-399)],"cytotoxicity (decrease of A549 viability) relative to comparison peptide, dose-response",A549 cells; 24 hours,at least as effective as compared to the Antp-AAC-11-LZ (363-399) peptide
same,cytotoxicity in nonmalignant cells,HaCat cells,largely more resistant
same,proliferation at the concentrations used for migration,D3H2LN cells,neither the Antp-AAC-11-LZ (363-399) or TAT-AAC-11-LZ (363-399) peptides impaired proliferation
Ac-RQIKIWFKKQNRRMKWKKLQYFARGLLRLALQGKT-NH2 [Antp-AAC-11-LZ (377-399 4385-390)],cellular viability,A549 cells,3 % of control
same,"cytotoxicity (decrease of A549 viability) relative to comparison peptide, dose-response",A549 cells; 24 hours,highest activity
Ac-RQIKIWFKKQNRRMKWKKFARGLQVYIRQLRLALQGKT-NH2 [Antp-AAC-11-LZ (380-399)],"cytotoxicity (decrease of A549 viability) relative to comparison peptide, dose-response",A549 cells; 24 hours,substantial but weaker cell death than the Antp-AAC-11-LZ (363-399) peptide
"Antp-AAC-11-LZ (363-399) L/G: RQIKIWFKKQNRRMKWKKAKLNAEKLKDFKIRGQYFARGGQVYIRQGRLALQGKT (SEQ ID NO: 5), leucines 377, 384 and 391 mutated to glycines (Ac-RQIKIWFKKQNRRMKWKKAKLNAEKLKDFKIRGQYFARGGQVYIRQGRLALQGKT-NH2)",induction of cell death of A549 cells,"A549 cells; 10 μM, serum deprivation, 24 hours, FIG. 1C","neither the Penetratin peptide alone, the AAC-11-LZ (363-399) peptide without the Penetratin linkage nor the mutant peptide Antp-AAC-11-LZ (363-399) L/G did induce cell death"
Ac-RQIKIWFKKQNRRMKWKKKDFKIRLQYFARGLQVYIRQL-NH2 [Antp-AAC-11-LZ (371-391)],"cytotoxicity (decrease of A549 viability) relative to comparison peptide, dose-response",A549 cells; 24 hours,reduced cytotoxicity compared with the Antp-AAC-11-LZ (371-399) peptide; also recorded: significantly higher cell death compared with the Antp-AAC-11-LZ (363-399) parent peptide
